How the values were obtained:
Format in all cases: in vivo, Crl:SHO-PrkdcscidHrhr mice
[1] = test system: human liver cancer PLC/PRF/5; assay: Liver cancer model, Experiment B: PLC/PRF/5 xenograft; conditions: rhTRAIL 50 mg/kg i.v. six times every second day, 43th day
Experimental: (§1) Tumor size was measured using electronic calliper, tumor volume was calculated using the formula: (a^2×b)/2, where a=shorter diagonal of the tumor (mm) and b=longer diagonal of the tumor (mm). Inhibition of tumor growth was calculated using the formula:
(§2) TGI[%](Tumor growth inhibition)=(WT/WC)×100−100%
(§3) wherein WT is the average tumor volume in the treatment group, and WC is the average tumor volume in the control group.
On day 0 Crl:SHO-Prkdc^scidHr^hr mice were grafted subcutaneously (s.c.) in the right flank region with 7×10^6 of PLC/PRF/5 cells suspended in 0.1 ml of the 3:1 mixture HBSS buffer:Matrigel using syringe with a 0.5×25 mm needle (Bogmark). When tumors reached the size of 72-536 mm^3 (day 29), mice were randomized to obtain the average size of tumors in the group of ˜205 mm^3 and assigned to treatment groups. The treatment groups were administered with the preparations of fusion protein of the invention of Ex. 16^b (50 mg/kg) and rhTRAIL114-281 (50 mg/kg) as a comparison and reference compound 5-FU (5-Fluorouracil, Sigma-Aldrich) (30 mg/kg). The preparations were administered intravenously (i.v.) six times every second day, except 5-FU, which was applied intraperitoneally (i.p.) in the schedule (q1dx5)×2. The control group received formulation buffer.
When an experimental group reached the average tumor size of ˜1000 mm^3, mice were sacrificed by cervical dislocation.

[2] = test system: human colon cancer HCT116; assay: Colon cancer model, Experiment A1: HCT116 xenograft; conditions: 65 mg/kg i.v. six times every second day, 24th day
Experimental: as §1, §2, §3
On day 0 Crl:SHO-Prkdc^scidHr^hr mice were grafted subcutaneously (s.c.) in the right flank region with 5×10^6 of HCT116 cells suspended in 0.1 ml of the 3:1 mixture HBSS buffer:Matrigel using syringe with a 0.5×25 mm needle (Bogmark). When tumors reached the size of 71-432 mm^3 (day 13), mice were randomized to obtain the average size of tumors in the group of ˜180 mm^3 and assigned to treatment groups. The treatment groups were administered with the preparations of fusion protein of the invention of Ex. 16^b (90 mg/kg) and rhTRAIL114-281 (65 mg/kg) as a comparison. The preparations were administered intravenously (i.v.) six times every second day. The control group received formulation buffer.
When an experimental group reached the average tumor size of −1000 mm^3, mice were sacrificed by cervical dislocation.

[3] = test system: human colon cancer HCT116; assay: Colon cancer model, Experiment A: HCT116 xenograft; conditions: 20 mg/kg i.v. 6 times every second day, 32 day
Experimental: as §1, §2, §3
On day 0 Crl:SHO-Prkdc^scidHr^hr mice were grafted subcutaneously (s.c.) in the right side with 5×10^6 of HCT116 cells suspended in 0.1 ml of HBSS buffer using syringe with a needle 0.5×25 mm (Bogmark). On the 18 day of the experiment mice were randomized to obtain the average size of tumors in the group of −400 mm^3 and assigned to treatment groups. The treatment groups were administered with the preparations of fusion protein of the invention of Ex. 11^a (35 mg/kg), and rhTRAIL114-281 (20 mg/kg) as a comparison against formulation buffer (5 mM NaH2PO4, 95 mM Na2HPO4, 200 mM NaCl, 5 mM glutathione, 0.1 mM ZnCl2, 10% glycerol, 80 mM saccharose, pH 8.0) as a control. The preparations were administered intravenously (i.v) 6 times once daily every second day. On the 32 day of the experiment mice were sacrificed by disruption of the spinal cord.

[4] = test system: pancreatic carcinoma MIA PaCa-2; assay: Pancreas cancer model, Experiment B: MIA PaCa-2 xenograft; conditions: rhTRAIL 50 mg/kg i.v. six times every second day, 61th day
Experimental: as §1, §2, §3
On day 0 Crl:SHO-Prkdc^scidHr^hr mice were grafted subcutaneously (s.c.) in the right flank region with 5×10^6 of MIA PaCa-2 cells suspended in 0.1 ml of 3:1 mixture HBSS buffer:Matrigel using syringe with a 0.5×25 mm needle (Bogmark). When tumors reached the size of 60-398 mm^3 (day 20), mice were randomized to obtain the average size of tumors in the group of ˜170 mm^3 and assigned to treatment groups. The treatment groups were administered with the preparations of fusion protein of the invention of Ex. 16^b (50 mg/kg) and rhTRAIL114-281 (50 mg/kg) as a comparison and reference compound gemcytabine (Gemzar, Eli Lilly) (50 mg/kg). The preparations were administered intravenously (i.v.) six times every second day, gemcytabine was applied intraperitoneally (i.p.) in the same schedule. The control group received formulation buffer.
When a therapeutic group reached the average tumor size of ˜1000 mm^3, mice were sacrificed by the cervical dislocation.

[5] = test system: human lung cancer NCI-H460-Luc2; assay: Lung cancer model, Experiment C: NCI-H460-Luc2 xenograft; conditions: 20 mg/kg i.v. 6 times every second day, 29 day
Experimental: as §1, §2, §3
On day 0 Crl:SHO-Prkdc^scidHr^hr mice were grafted subcutaneously (s.c.) in the right side with 5×10^6 of NCI-H460-Luc2 cells suspended in 0.1 ml of HBSS buffer using syringe with a needle 0.5×25 mm (Bogmark). On the 11 day of the experiment mice were randomized to obtain the average size of tumors in the group of ˜100-120 mm^3 and assigned to treatment groups. The treatment groups were administered with the preparations of fusion protein of the invention of Ex. 11^a (40 mg/kg and 30 mg/kg), and rhTRAIL114-281 (20 mg/kg) as a comparison against formulation buffer (19 mM NaH2PO4, 81 mM Na2HPO4, 50 mM NaCl, 5 mM glutathione, 0.1 mM ZnCl2, 10% glycerol, pH 7.4) as a control. The preparations were administered intravenously (i.v) 6 times once daily every second day (in case of fusion protein of the invention of Ex. 11^a first administration at a dose 40 mg/kg and subsequent at 30 mg/kg. On the 29 day of the experiment mice were sacrificed by disruption of the spinal cord.

rhTRAIL114-281: recombinant human soluble TRAIL, amino acids 114-281 of hTRAIL, used as comparative reference
TGI (tumor growth inhibition) relative to the control [1]: 25.2%
TGI (tumor growth inhibition) relative to the control [2]: 37.9%
TGI (tumor growth inhibition) relative to the control [3]: 5.6%
TGI (tumor growth inhibition) relative to the control [4]: 68%
TGI (tumor growth inhibition) relative to the control [5]: 76%
